Laboratory results published in US20030069295A1, “Use of histamine H3 receptor inverse agonists for the control of appetite and treatment of obesity” (Gliatech, Inc., priority 2001, published 2003).
Like-named read-outs stand apart in the source and are kept apart here. Marks after values point to notes of the source that are not given here.

Columns and labels:
H3 receptor = molecular target: T1, H3 receptor (Rattus norvegicus, UniProt Q9QYN8); assay: Ex vivo binding: H3 receptor occupancy in the brain following intraperitoneal administration
T1 construct: ½-maximal H3 receptor occupancy in the brain following intraperitoneal administration; from tissue; host or cells: brain of dosed animals
Description: (§1) The percent reduction in food intake by rats two hours after intraperitoneal administration of each compound is shown in Table 5. […] In Table 5, * indicates a significant decrease in food intake compared to the vehicle-treated rats (t-test, p<0.05). The ex vivo binding values in Table 5 represent the drug dose required to obtain ½-maximal H3 receptor occupancy in the brain following intraperitoneal administration. The dose values shown in Table 5 represent the dosage of drug utilized during the food intake studies. In all cases, the tested dose exceeded the amount needed to obtain ½-maximal H3 receptor occupancy in the brain.

Histamine H3 receptor = molecular target: T2, Histamine H3 receptor (Rattus norvegicus, UniProt Q9QYN8); assay: Histamine H3 receptor binding analysis, [3H]-Nα-methylhistamine competition in rat cerebral cortical membranes, with and without GTPγS; conditions: for Ki Ratio (−/+): Ki without GTPγS / Ki with GTPγS; for remaining activity at 10 µM: read-out: percent of [3H]-Nα-methylhistamine bound (mean), 10000 nM of compound; for binding to GTPγS-treated cortical membrane preparation compared with non-treated preparation: result in words; for remaining activity at 30 pM: 0.03 nM of compound; for remaining activity at 0.0001 µM: 0.1 nM of compound; for remaining activity at 0.3 µM: 300 nM of compound
T2 construct: The cerebral cortical tissues were harvested and frozen on dry ice; from tissue; host or cells: cerebral cortex membranes of male Sprague-Dawley rats
Experimental: A histamine H3 receptor binding analysis to determine the affinity of various imidazole derivatives for G-protein uncoupled receptors was performed as follows. […] Animals were acclimated to laboratory conditions for a minimum of one week prior to tissue harvesting.
Animals were anesthetized by NO2 inhalation and euthanized by rapid decapitation. The cerebral cortical tissues were harvested and frozen on dry ice. Rat corticies were mechanically homogenized using a Tissue Tearer in 25 mM Tris buffer (pH 7.5 at 4° C.) containing: EDTA (10 mM), phenylmethylsulfonyl fluoride (0.1 mM), chymostatin and leupeptin (each 0.2 mg/50 mL). The homogenate was centrifuged in a Sorvall centrifuge at 40,000×g for 30 minutes. The pellet was re-suspended in 25 ml water and lysed on ice for 30 minutes. The homogenate was then re-centrifuged and the membrane lysis was repeated. The membranes were centrifuged and the final membrane pellets were resuspended in 14 volumes of water to yield approximately 200 μg protein/100 μl final concentration. The suspension was stored frozen at −80° C. prior to use. Protein concentrations were determined using the Coomassie Plus Protein Assay (available from Pierce of Rockford, Ill.).
GTPγS causes dissociation of G-protein from receptors. Data are shown as percent of [^3H]-N^α-methylhistamine bound (mean) for each table.

Sprague-Dawley rats = assay: Food intake study in Sprague-Dawley rats; format: in vivo, rat; conditions: for effect on food consumption by rats: two hours after intraperitoneal administration; for cumulative food intake, mean (g) ± sem: 10 mg/kg i.p., rats
Experimental: The compounds summarized in Table 3 were examined for their ability to suppress food consumption by adult Sprague-Dawley rats. Male Sprague Dawley rats were purchased from Harlan Laboratories of Indianapolis, Ind. Rats were housed one per cage and maintained on a 12 hour light/dark schedule (lights-out at 12:30 p.m.) with ad libitum access to powdered Teklad Mouse/Rat Diet 7012 (available from Harlan Laboratories of Indianapolis, Ind.) and water. Rats were acclimated to laboratory conditions and food for 1 to 2 weeks prior to initiating food intake studies. On the day of experiments, test compounds were solubilized or suspended in vehicle/carrier and administered to rats (i.p. or p.o.) 30 to 60 minutes prior to the onset of the dark cycle. Food intake was determined at 1, 2, 4, and 24 hours following the onset of the dark cycle. Alternatively, rats were fasted (water provided) for 24 hours prior to evaluating the effects of compounds on food intake. For these studies, compounds or vehicle/carrier were administered and rats were placed in standard small animal metabolism chambers with ad ibitum access to powdered Teklad Mouse/Rat Diet 7012 and water. Food intake was determined at 2 and 4 hours following the onset of feeding.
Data is cumulative food intake in grams, mean±sem. In the table, * indicates a significant decrease in food intake compared to the vehicle-treated rats (t-test, p<0.05).
as §1

[1] = GTPγS-treated receptor preparation (G-protein uncoupled), read-out: Ki (+) GTPγS
[2] = untreated receptor preparation (mixture of coupled and uncoupled H3 receptors), read-out: Ki (−) GTPγS
[3] = Tris-GTPγS, read-out: percent of [3H]-Nα-methylhistamine bound (mean)
[4] = Tris, read-out: percent of [3H]-Nα-methylhistamine bound (mean)

T1 sequence (Q9QYN8 whole entry): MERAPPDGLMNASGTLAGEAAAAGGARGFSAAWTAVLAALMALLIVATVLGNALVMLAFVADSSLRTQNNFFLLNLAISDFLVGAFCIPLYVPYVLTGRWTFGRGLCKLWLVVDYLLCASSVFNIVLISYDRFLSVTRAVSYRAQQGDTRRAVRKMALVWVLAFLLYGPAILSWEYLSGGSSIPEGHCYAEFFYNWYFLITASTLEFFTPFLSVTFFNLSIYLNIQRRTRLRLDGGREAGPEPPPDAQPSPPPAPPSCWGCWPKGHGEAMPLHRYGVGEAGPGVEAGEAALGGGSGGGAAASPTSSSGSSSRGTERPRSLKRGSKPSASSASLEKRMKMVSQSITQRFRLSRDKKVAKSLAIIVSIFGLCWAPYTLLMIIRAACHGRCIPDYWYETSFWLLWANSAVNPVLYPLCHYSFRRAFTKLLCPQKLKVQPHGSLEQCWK
T2 sequence (Q9QYN8 whole entry): as above

SMILES: O=C(N[C@@H]1C[C@H]1c1c[nH]cn1)OCCC1CCCCC1 [Compound 1, 4-((1R,2R)-trans-2-(O-(2-cyclohexylethyl)carboxamido)cyclopropyl)imidazole]
- Ex Vivo Binding (drug dose required to obtain ½-maximal H3 receptor occupancy in the brain) (H3 receptor): 3.1 ± 1.3 mg/kg
- Ki (Histamine H3 receptor; [1]): 7.2 nM
- Ki Ratio (−/+) (Histamine H3 receptor): 4.1
- remaining activity at 0.0003 µM (Histamine H3 receptor; read-out: percent of [3H]-Nα-methylhistamine bound (mean), 0.3 nM of compound, Tris): 108%
- remaining activity at 0.0003 µM (Histamine H3 receptor; read-out: percent of [3H]-Nα-methylhistamine bound (mean), 0.3 nM of compound, Tris-GTPγS): 103%
- remaining activity at 0.001 µM (Histamine H3 receptor; read-out: percent of [3H]-Nα-methylhistamine bound (mean), 1 nM of compound, Tris): 95.7%
- remaining activity at 0.001 µM (Histamine H3 receptor; read-out: percent of [3H]-Nα-methylhistamine bound (mean), 1 nM of compound, Tris-GTPγS): 98.3%
- remaining activity at 0.003 µM (Histamine H3 receptor; read-out: percent of [3H]-Nα-methylhistamine bound (mean), 3 nM of compound, Tris): 102%
- remaining activity at 0.003 µM (Histamine H3 receptor; read-out: percent of [3H]-Nα-methylhistamine bound (mean), 3 nM of compound, Tris-GTPγS): 93.3%
- remaining activity at 0.01 µM (Histamine H3 receptor; read-out: percent of [3H]-Nα-methylhistamine bound (mean), 10 nM of compound, Tris): 102%
- remaining activity at 0.01 µM (Histamine H3 receptor; read-out: percent of [3H]-Nα-methylhistamine bound (mean), 10 nM of compound, Tris-GTPγS): 76.4%
- remaining activity at 0.03 µM (Histamine H3 receptor; read-out: percent of [3H]-Nα-methylhistamine bound (mean), 30 nM of compound, Tris): 88.4%
- remaining activity at 0.03 µM (Histamine H3 receptor; read-out: percent of [3H]-Nα-methylhistamine bound (mean), 30 nM of compound, Tris-GTPγS): 42.6%
- remaining activity at 0.1 µM (Histamine H3 receptor; read-out: percent of [3H]-Nα-methylhistamine bound (mean), 100 nM of compound, Tris): 67.9%
- remaining activity at 0.1 µM (Histamine H3 receptor; read-out: percent of [3H]-Nα-methylhistamine bound (mean), 100 nM of compound, Tris-GTPγS): 23.8%
- remaining activity at 1 µM (Histamine H3 receptor; read-out: percent of [3H]-Nα-methylhistamine bound (mean), 1000 nM of compound, Tris): 12.6%
- remaining activity at 1 µM (Histamine H3 receptor; read-out: percent of [3H]-Nα-methylhistamine bound (mean), 1000 nM of compound, Tris-GTPγS): 4%
- remaining activity at 10 µM (Histamine H3 receptor; Tris): -1.6%
- remaining activity at 10 µM (Histamine H3 receptor; Tris-GTPγS): 1.3%
- binding to GTPγS-treated cortical membrane preparation compared with non-treated preparation (Histamine H3 receptor): higher apparent affinity
- Ki (Histamine H3 receptor; [2]): 29.3 nM

SMILES: C(=C/CCC1CCCCC1)/CCc1c[nH]cn1 [Compound 2, (3Z)-4-(6-cyclohexylhex-3-en-1-yl)imidazole]
- effect on food consumption by rats (Sprague-Dawley rats; result in words): no measurable effect
- Ex Vivo Binding (drug dose required to obtain ½-maximal H3 receptor occupancy in the brain) (H3 receptor): 0.92 ± 0.01 mg/kg
- remaining activity at 30 pM (Histamine H3 receptor; [3]): 98.3%
- remaining activity at 30 pM (Histamine H3 receptor; [4]): 98.5%
- remaining activity at 0.0001 µM (Histamine H3 receptor; [3]): 107%
- remaining activity at 0.0001 µM (Histamine H3 receptor; [4]): 96.7%
- remaining activity at 0.0003 µM (Histamine H3 receptor; 0.3 nM of compound, Tris-GTPγS, read-out: percent of [3H]-Nα-methylhistamine bound (mean)): 103%
- remaining activity at 0.0003 µM (Histamine H3 receptor; 0.3 nM of compound, Tris, read-out: percent of [3H]-Nα-methylhistamine bound (mean)): 96.7%
- remaining activity at 0.001 µM (Histamine H3 receptor; 1 nM of compound, Tris-GTPγS, read-out: percent of [3H]-Nα-methylhistamine bound (mean)): 91.1%
- remaining activity at 0.001 µM (Histamine H3 receptor; 1 nM of compound, Tris, read-out: percent of [3H]-Nα-methylhistamine bound (mean)): 99.2%
- remaining activity at 0.003 µM (Histamine H3 receptor; 3 nM of compound, Tris-GTPγS, read-out: percent of [3H]-Nα-methylhistamine bound (mean)): 77.4%
- remaining activity at 0.003 µM (Histamine H3 receptor; 3 nM of compound, Tris, read-out: percent of [3H]-Nα-methylhistamine bound (mean)): 88.7%
- remaining activity at 0.01 µM (Histamine H3 receptor; 10 nM of compound, Tris-GTPγS, read-out: percent of [3H]-Nα-methylhistamine bound (mean)): 54.8%
- remaining activity at 0.01 µM (Histamine H3 receptor; 10 nM of compound, Tris, read-out: percent of [3H]-Nα-methylhistamine bound (mean)): 60.1%
- remaining activity at 0.03 µM (Histamine H3 receptor; 30 nM of compound, Tris-GTPγS, read-out: percent of [3H]-Nα-methylhistamine bound (mean)): 26.2%
- remaining activity at 0.03 µM (Histamine H3 receptor; 30 nM of compound, Tris, read-out: percent of [3H]-Nα-methylhistamine bound (mean)): 32.6%
- remaining activity at 0.1 µM (Histamine H3 receptor; 100 nM of compound, Tris-GTPγS, read-out: percent of [3H]-Nα-methylhistamine bound (mean)): 10.7%
- remaining activity at 0.1 µM (Histamine H3 receptor; 100 nM of compound, Tris, read-out: percent of [3H]-Nα-methylhistamine bound (mean)): 13.5%
- remaining activity at 0.3 µM (Histamine H3 receptor; [3]): 4.4%
- remaining activity at 0.3 µM (Histamine H3 receptor; [4]): 4.5%
- remaining activity at 1 µM (Histamine H3 receptor; 1000 nM of compound, Tris-GTPγS, read-out: percent of [3H]-Nα-methylhistamine bound (mean)): 3.4%
- remaining activity at 1 µM (Histamine H3 receptor; 1000 nM of compound, Tris, read-out: percent of [3H]-Nα-methylhistamine bound (mean)): 0.4%
- Ki (Histamine H3 receptor; [1]): 3.6 nM
- Ki Ratio (−/+) (Histamine H3 receptor): 1.3
- binding to GTPγS-treated cortical membrane preparation compared with non-treated preparation (Histamine H3 receptor): relatively little difference in binding
- Ki (Histamine H3 receptor; [2]): 4.6 nM

SMILES: O=C(N[C@@H]1C[C@H]1c1c[nH]cn1)OCC1CCCCC1 [Compound 3, 4-((1R,2R)-trans-2-(O-(2-cyclohexylmethyl)carboxamido)cyclopropyl)imidazole]
- cumulative food intake, mean (g) ± sem (Sprague-Dawley rats; 1 hr following onset of dark cycle): 1.8 ± 0.3* g
- cumulative food intake, mean (g) ± sem (Sprague-Dawley rats; 2 hr following onset of dark cycle): 4.4 ± 0.2* g
- cumulative food intake, mean (g) ± sem (Sprague-Dawley rats; 4 hr following onset of dark cycle): 7.1 ± 0.5* g
- cumulative food intake, mean (g) ± sem (Sprague-Dawley rats; 24 hr following onset of dark cycle): 17.4 ± 1.2* g
- effect of a single administration on food consumption (Sprague-Dawley rats; single administration, up to 24 hours, result in words): significant reduction of food consumption
- Ex Vivo Binding (drug dose required to obtain ½-maximal H3 receptor occupancy in the brain) (H3 receptor): 2.6 ± 1.3 mg/kg
- Ki (Histamine H3 receptor; Ki (+) GTPγS, GTPγS-treated receptor preparation (G-protein uncoupled)): 4.2 nM
- Ki (Histamine H3 receptor; Ki (−) GTPγS, untreated receptor preparation (mixture of coupled and uncoupled H3 receptors)): 10.1 nM
- Ki Ratio (−/+) (Histamine H3 receptor): 2.4

SMILES: N[C@H](/C=C\CCc1c[nH]cn1)CC1CCCCC1 [Compound 4, 4-(((5S)(3Z)-5-amino-6-cyclohexyl)hex-3-en-1-yl)imidazole]
- Ex Vivo Binding (drug dose required to obtain ½-maximal H3 receptor occupancy in the brain) (H3 receptor): ˜15 mg/kg
- Ki (Histamine H3 receptor; [1]): 1.9 nM
- Ki Ratio (−/+) (Histamine H3 receptor): 6.0
- Ki (Histamine H3 receptor; [2]): 11.3 nM

SMILES: O=C(CCCCC1CCCCC1)N1CCC(c2c[nH]cn2)CC1 [Compound 5, 4-(N-(5-cyclohexylpentan-1-one-1-yl)piperidin-4-yl)imidazole]
- Ex Vivo Binding (drug dose required to obtain ½-maximal H3 receptor occupancy in the brain) (H3 receptor): 8.0 ± 1.3 mg/kg

SMILES: CC(C)(C)CCC#C[C@@H]1C[C@H]1c1c[nH]cn1 [Compound 6, (1R,2R)-trans-4-(2-(5,5-dimethylhex-1-ynyl)cyclopropyl) imidazole]
- effect on food consumption by rats (Sprague-Dawley rats; result in words): no measurable effect
- Ex Vivo Binding (drug dose required to obtain ½-maximal H3 receptor occupancy in the brain) (H3 receptor): 0.08 ± 0.03 mg/kg
- Ki (Histamine H3 receptor; [1]): 0.24 nM
- Ki Ratio (−/+) (Histamine H3 receptor): 1.7
- Ki (Histamine H3 receptor; [2]): 0.41 nM

SMILES: O=C(N[C@@H]1C[C@H]1c1c[nH]cn1)OCc1c(Cl)cccc1Cl [Compound 7, 4-((1R,2R)-trans-2-(O-(2,6-dichlorophenylmethyl)carboxamido)cyclopropyl)imidazole]
- effect on food consumption by rats (Sprague-Dawley rats; result in words): no measurable effect
- Ex Vivo Binding (drug dose required to obtain ½-maximal H3 receptor occupancy in the brain) (H3 receptor): 2.9 ± 1.3 mg/kg
- Ki (Histamine H3 receptor; [1]): 2.3 nM
- Ki Ratio (−/+) (Histamine H3 receptor): 1.5
- Ki (Histamine H3 receptor; [2]): 3.4 nM

SMILES: Fc1ccc(C(OCCCc2c[nH]cn2)c2ccc(F)cc2)cc1 [Compound 8, 3-(1H-imidazol-4-yl)propyl-di(p-fluorophenyl)-methyl ether]
- Ex Vivo Binding (drug dose required to obtain ½-maximal H3 receptor occupancy in the brain) (H3 receptor): 5.6 ± 0.12 mg/kg
- Ki (Histamine H3 receptor; [1]): 7.8 nM
- Ki Ratio (−/+) (Histamine H3 receptor): 2.3
- Ki (Histamine H3 receptor; [2]): 18.2 nM

SMILES: CC(C)(C)CCOC(=O)N[C@@H]1C[C@H]1c1c[nH]cn1 [Compound 9, 4-((1R,2R)-trans-2-(O-(3,3-dimethyl-but-1-yl)carboxamido)cyclopropyl)imidazole]
- effect on food consumption by rats (Sprague-Dawley rats; result in words): no measurable effect
- Ex Vivo Binding (drug dose required to obtain ½-maximal H3 receptor occupancy in the brain) (H3 receptor): 3.7 ± 0.4 mg/kg
- Ki (Histamine H3 receptor; [1]): 4.5 nM
- Ki Ratio (−/+) (Histamine H3 receptor): 1.6
- Ki (Histamine H3 receptor; [2]): 7.3 nM
